Laboratory results from US5484793A, “Compounds derived from 6-azaindoles as ligands of the benzodiazepine receptor and medicaments containing them” (Centre National de la Recherche Scientifique (CNRS), priority 1991, dated 1996).
Where two headings read alike, the source gives them in different places.

Legend:
[1] = in vivo (anxiolytic, anticonvulsant, and the like); cited from earlier work
benzodiazepine receptor [2] = assay: In vitro affinity for the benzodiazepine receptor on rat cortex membrane; format: binding
Description: A--In Vitro Tests on Cortex Membrane
The compounds of Examples 1 to 14 were tested on rat cortex membrane in order to determine their affinity for the benzodiazepine receptor.

man = settings: cited from earlier work
benzodiazepine receptor [3] = settings: cited from earlier work
[4] = test system: GABA receptor/benzodiazepine receptor/chloride channel complexes; assay: Electrophysiological test on Xenopus oocyte (injected with chicken optical lobe mRNA), pharmacological profile; format: cell-based; settings: for pharmacological profile at the benzodiazepine receptor: Xenopus oocyte; for change of the potential difference (PD) of the oocyte: 10^-6 M, in 10^-5 M GABA bath
Source text: B--Pharmacological Property of the Compound of Example 1 Determination of the Pharmacological Profile
This study consists of an electrophysiological test on Xenopus oocyte. The cells of chicken optical lobes fortuitously have a good response to GABA. The total RNAs are extracted therefrom and passed through an oligo(dT) affinity column, thus making it possible to separate the crude messenger RNAs therefrom, because the latter have a poly(A) end tail which will combine by complementarity with the oligo(dT) residues of the column. These messenger RNAs will then be injected into a Xenopus oocyte, which is only a one and only cell. These oocytes will then be incubated and, in two days, the messenger RNAs will be expressed and will thus, by virtue of the cell machinery of the oocyte, have produced GABA receptor/benzodiazepine receptor/chloride channel complexes. These large protein entities will then migrate in the cell and will reach the membrane, thus making it possible for this receptor and the transmembrane ion channel which is combined with it to take its place.
The oocyte is then placed in a 10^-5 M GABA bath in Ringer solution and two microelectrodes A and B are introduced therein, a third microelectrode being placed outside the cell to act as reference. Microelectrode A will be used to measure the potential difference (PD) between the interior and the exterior of the oocyte. A PD of 60 mV is imposed on the oocyte and the microelectrode B will be used to maintain this desired PD.
By perfusing an agonist such as diazepam, the latter and the GABA present in the medium will exert an allosteric effect at the level of the receptor with, as corollary, opening of the ion channel. There will therefore be entry of chloride into the oocyte and the PD will greatly increase. On the other hand, an inverse agonist such as β-CCM will cause a reduction in the binding of the GABA to the receptor with, as consequence, a reduction in the time of opening of the chloride channel and a lower PD.
An antagonist will occupy the binding site of the benzodiazepine receptor but will have no effect on the binding of the GABA. The opening of the chloride channel will therefore not be disturbed and the PD will not vary.

[5] = target: central receptors of benzodiazepines; settings: in vitro, rat brain; read-out: IC50 at central benzodiazepine receptors; cited from earlier work
mice = settings: facilitating convulsions caused by other agents such as pentylenetetrazole; cited from earlier work
[6] = test system: mice belonging to the ABP/Le strain; assay: In vivo convulsant properties in ABP/Le mice; set-up: species or system mouse; settings: 20 mg/kg intraperitoneally, 14 mice, observation after 30 minutes
Description: Compound 1 was tested first for its convulsant properties. The test was carried out on 14 mice (5 males and 9 females) aged two months belonging to the ABP/Le strain. This particular strain is very sensitive to convulsions induced by β-carbolines. Compound 1 was administered intraperitoneally at a dose of 20 mg/kg and observation took place after 30 minutes. […] The compound is therefore not convulsant.

female Swiss mice = assay: Passive avoidance test with learning in a single test (memory); format: in vivo, mouse; settings: 20 mg/kg intraperitoneal
Description: Compound 1 was then tested on learning. This test, passive avoidance with learning in a single test, was carried out on 30 female Swiss mice aged two months. Compound 1 was administered to 15 mice at a dose of 20 mg/kg, the other 15 receiving an injection of physiological serum.
The equipment consists of a white box connected to a black box by a door. The white box is lit by a 100 W lamp placed at a distance of 25 cm and the black box, into which the mouse will spontaneously go because she feels safe in the darkness, contains an electrified metal floor. The boxes are coated with the smell of mice by an animal placed inside before each of the two series of 15 mice. […]
Ten minutes before learning, the marked mice receive an intraperitoneal injection of physiological serum or of Compound 1. […] The mice were then placed one by one in the illuminated white box and the arrival time in the black box is recorded. […]
After 24 hours, the avoidance test takes place: the mouse is placed in the white box and whether or not the mouse enters the black box in three minutes is recorded without any electrical shock being caused. If the mouse enters the black box in less than three minutes, the molecule tested has not improved the acquisition of the information "black box=electric shock" but if the time recorded is greater than three minutes, the molecule is assumed to have acted.

benzodiazepine receptor [7] = settings: in vitro; cited from earlier work
[8] = in vivo; cited from earlier work
[9] = in vivo; cited from earlier work; remark: listed apart in the source

In the case of `CCOC(=O)c1ncc2[nH]c3ccc(OCc4ccccc4)cc3c2c1COC` [ZK 93423], the “in vivo properties compared with diazepam” value [1] is listed as “properties analogous to those of diazepam in vivo (anxiolytic, anticonvulsant, and the like)”.
`COC(=O)c1cc2c(COCc3ccc([N+](=O)[O-])cc3)c[nH]c2cn1` [Example 8] showed an IC50 (benzodiazepine receptor [2]) of 300 nM.
In the case of `CCOC(=O)c1ncc2[nH]c3cccc(OC(C)C)c3c2c1C` [ZK 93426], the “memory-enhancing properties in man” value (man) is given as “memory-enhancing properties were revealed” and the “functional class at the benzodiazepine receptor” value (shortened to “functional class”) (benzodiazepine receptor [3]) is given as “antagonists of the benzodiazepine receptor”.
Compound `O=C(O)c1ccc(NC(=O)c2cc3cc[nH]c3cn2)cc1` [Example 15] has an IC50 (benzodiazepine receptor [2]) of 2300 nM.
`COC(=O)c1cc2c(COCc3cccc(OC)c3)c[nH]c2cn1` [Example 9] showed an IC50 (benzodiazepine receptor [2]) of 10000 nM.
Compound `COC(=O)c1cc2c(COCc3ccc(F)cc3)c[nH]c2cn1` [Example 5] has an IC50 (benzodiazepine receptor [2]) of 75 nM.
Work on `COC(=O)c1cc2c(COCc3cccc(F)c3)c[nH]c2cn1` [Example 4] yielded an IC50 (benzodiazepine receptor [2]) of 100 nM.
For `CCOC(=O)c1ncc2[nH]c3cccc(OCc4ccccc4)c3c2c1COC` [ZK 91296], the “pharmacological profile at the benzodiazepine receptor” value [4] is listed as “partial agonist” and the “in vivo properties compared with diazepam” value [1] is listed as “properties analogous to those of diazepam in vivo (anxiolytic, anticonvulsant, and the like)”.
In the case of `COC(=O)c1cc2c(COCC=Cc3ccccc3)c[nH]c2cn1` [Example 11], the IC50 (benzodiazepine receptor [2]) is reported as 150 nM.
Work on `COC(=O)c1cc2c(COCc3ccccc3F)c[nH]c2cn1` [Example 3] yielded an IC50 (benzodiazepine receptor [2]) of 65 nM.
`O=C(Nc1ccccc1)c1cc2cc[nH]c2cn1` [Example 13] gave an IC50 (benzodiazepine receptor [2]) of 7000 nM.
In the case of `CCOC(=O)c1cc2c(cn1)[nH]c1ccccc12` [β-CCE, ethyl ester of β-carboline-3-carboxylic acid], the IC50 [5] is given as 4 nM and the proconvulsant effect (mice) is given as “proconvulsant in mice”.
In the case of `CCOC(=O)c1ncn2c1CN(C)C(=O)c1cc(F)ccc1-2` [Flumazenil], the “memory-enhancing properties in man” value (man) is given as “memory-enhancing properties were revealed” and the “functional class” value (benzodiazepine receptor [3]) is given as “antagonists of the benzodiazepine receptor”.
In the case of `COC(=O)c1cc2c(COCc3ccccc3)c[nH]c2cn1` [Example 1, Methyl 3-Benzyloxymethyl-6-Azaindole-5-Carboxylate], the IC50 (benzodiazepine receptor [2]) is reported as 750 nM, the “change of the potential difference (PD) of the oocyte” value (“change of the potential difference” below) [4] is reported as “slight reduction of the PD” and the “pharmacological profile at the benzodiazepine receptor” value [4] is reported as “partial inverse agonist”. For the same compound, the convulsions [6] was “None of the mice showed the least convulsion”, the “memory-enhancing effect during the passive avoidance test” value (female Swiss mice) was “memory-enhancing effect of the compound during the passive avoidance test with learning in a single test has therefore been revealed” and the “animals treated with the molecule that learnt to avoid the electric shock” value (female Swiss mice; 24 hours) was 75%.
`O=C(Nc1ccccc1C(=O)O)c1cc2cc[nH]c2cn1` [Example 12, 5-Phenylamido-6-Azaindole-2'-Carboxylic Acid] gave an IC50 (benzodiazepine receptor [2]) of 300 nM.
Compound `COC(=O)c1cc2c(COCc3ccccc3[N+](=O)[O-])c[nH]c2cn1` [Example 6] has an IC50 (benzodiazepine receptor [2]) of 1200 nM.
For `COC(=O)c1cc2c(COCc3cccc([N+](=O)[O-])c3)c[nH]c2cn1` [Example 7], the IC50 (benzodiazepine receptor [2]) was 1300 nM.
For `CCOC(=O)c1cc2cc(C(=O)OCC)[nH]c2cn1` [2,5-dicarbethoxy-6-azaindole], the IC50 (benzodiazepine receptor [7]) is listed as 84000 nM.
With `COC(=O)c1cc2c(COCCc3ccccc3)c[nH]c2cn1` [Example 10] the IC50 (benzodiazepine receptor [2]) was 8 nM.
For `COC(=O)c1cc2c(cn1)[nH]c1ccccc12` [β-CCM], the “change of the potential difference” value [4] is given as “significant reduction”, the “effect on learning and memory” value [8] is given as “positive effect on learning and memory” and the convulsant activity [9] is given as “highly convulsant activity”. For the same compound, the “functional class” value (benzodiazepine receptor [3]) was “inverse agonists of the benzodiazepine receptor”.
Work on `O=C(O)c1cccc(NC(=O)c2cc3cc[nH]c3cn2)c1` [Example 14] yielded an IC50 (benzodiazepine receptor [2]) of 5500 nM.
In the case of `CN1C(=O)CN=C(c2ccccc2)c2cc(Cl)ccc21` [diazepam], the “change of the potential difference” value [4] is reported as “great increase”.
Work on `COCc1c[nH]c2cnc(C(=O)OC)cc12` [Example 2] yielded an IC50 (benzodiazepine receptor [2]) of 1500 nM.
